Experimental data: PubChem BioAssay (NCI)
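Compound exposure: 48 hours, 5 concentrations, 96-well plates. The concentration for full growth arrest is given as TGI.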

Key:
Assay in all cases: DTP human tumour cell line panel, 48 h
DU-145 prostate = tested on: DU-145 prostate
HCC-2998 colon = tested on: HCC-2998 colon
HL-60(TB) leukemia = tested on: HL-60(TB) leukemia
HOP-62 NSCLC = tested on: HOP-62 NSCLC
IGROV1 ovarian = tested on: IGROV1 ovarian
KM12 colon = tested on: KM12 colon
M14 melanoma = tested on: M14 melanoma
MOLT-4 leukemia = tested on: MOLT-4 leukemia
NCI-H226 lung = tested on: NCI-H226 lung
NCI-H522 lung = tested on: NCI-H522 lung
OVCAR-4 ovarian = tested on: OVCAR-4 ovarian
OVCAR-5 ovarian = tested on: OVCAR-5 ovarian
OVCAR-8 ovarian = tested on: OVCAR-8 ovarian
RPMI-8226 leukemia = tested on: RPMI-8226 leukemia
SF-295 CNS = tested on: SF-295 CNS
SK-MEL-5 melanoma = tested on: SK-MEL-5 melanoma
SK-OV-3 ovarian = tested on: SK-OV-3 ovarian
SR leukemia = tested on: SR leukemia
EKVX NSCLC = tested on: EKVX NSCLC

| Structure (SMILES) | TGI (DU-145 prostate) [µM] | TGI (HCC-2998 colon) [µM] | TGI (HL-60(TB) leukemia) [µM] | TGI (HOP-62 NSCLC) [µM] | TGI (IGROV1 ovarian) [µM] | TGI (KM12 colon) [µM] | TGI (M14 melanoma) [µM] | TGI (MOLT-4 leukemia) [µM] | TGI (NCI-H226 lung) [µM] | TGI (NCI-H522 lung) [µM] | TGI (OVCAR-4 ovarian) [µM] | TGI (OVCAR-5 ovarian) [µM] | TGI (OVCAR-8 ovarian) [µM] | TGI (RPMI-8226 leukemia) [µM] | TGI (SF-295 CNS) [µM] | TGI (SK-MEL-5 melanoma) [µM] | TGI (SK-OV-3 ovarian) [µM] | TGI (SR leukemia) [µM] | TGI (EKVX NSCLC) [µM] |
| --- | --- | --- | --- | --- | --- | --- | --- | --- | --- | --- | --- | --- | --- | --- | --- | --- | --- | --- | --- |
| Cc1ccc(SCC(OCn2cnc3c(Cl)nc(N)nc32)[C@H](C)F)cc1 (stereo partly specified) | > 100 | > 100 | 96.8 | > 100 | > 100 | > 100 | > 100 | > 100 | > 100 | 29.4 | > 100 | > 100 | > 100 | > 100 | > 100 | 47.6 | > 100 | > 100 |  |
| O=C1/C(=C/c2ccccc2)CCCc2ccccc21 | 54.7 |  | 35.5 | 36.3 | 38.8 | 35.2 | 41.4 | 48.1 | 36.6 | 51.6 | 32 | 42.2 | 45.5 | > 100 | 35.9 |  | > 100 | 37.8 | 37.3 |
| O=c1[nH]nc(-c2ccc(F)cc2)cc1-c1ccccc1 | > 100 | > 100 | > 100 |  | > 100 | > 100 | > 100 | > 100 | > 100 |  | > 100 | > 100 | > 100 | > 100 | > 100 | > 100 | > 100 | > 100 | > 100 |
| CC(=O)NC1C(OCc2ccccc2)OC(CO)C(O)C1OCC(=O)N[C@@H](C)C(=O)N[C@H](CCC(=O)NCCNc1ccc([N+](=O)[O-])c2[nH]c3ccccc3c(=O)c12)C(N)=O (stereo partly specified) | > 100 | 36 | > 100 | > 100 |  | > 100 | > 100 |  | 32.4 | > 100 | 67.9 | > 100 | 61.2 | > 100 | > 100 | > 100 | > 100 | > 100 | 60.5 |
| Cc1ccc(/S(Cc2ccccc2)=N\S(=O)(=O)c2ccc(C)cc2)cc1 (stereo unspecified) | > 100 |  | > 100 | > 100 |  | > 100 | > 100 |  | > 100 |  |  | > 100 | > 100 | > 100 | > 100 |  |  | > 100 | > 100 |
| Cc1cc(NS(=O)(=O)c2ccc(Nc3c4ccccc4nc4c(C(=O)NCCO)cccc34)cc2)no1 | > 100 | > 100 | > 100 | > 100 | > 100 | 62.7 | 70 | > 100 |  | 30.2 | 86.7 | > 100 | > 100 | 79.3 | > 100 | > 100 | > 100 | > 100 | > 100 |
| Cc1ccc(S(=O)(=O)NC(=O)NC(CCC(N)=O)C(=O)O)cc1 (stereo unspecified) | > 100 |  | > 100 | > 100 | > 100 | > 100 | > 100 | > 100 |  | > 100 | > 100 | > 100 | > 100 | > 100 | > 100 | > 100 | > 100 | > 100 |  |
| CC1(C)OC2OC(COC(=O)c3ccc(C#N)cc3)C3OC(C)(C)OC3C2O1 (stereo unspecified) | > 75 | > 75 |  | > 75 | > 75 | > 75 | > 75 | > 75 | > 75 | > 75 | > 75 | > 75 | > 75 | > 75 | > 75 | > 75 | > 75 | > 75 | > 75 |
| COc1cc(OC)c(OC)cc1/C=C/c1cc[n+](C)c2ccccc12 | > 100 | > 100 | 33 | > 100 | > 100 | 75 | > 100 | > 100 |  |  | > 100 | > 100 | > 100 | > 100 | > 100 | 26.4 | > 100 | > 100 | > 100 |
| Cc1cc(C)nc(NS(=O)(=O)c2ccc(NC(=O)c3cc([N+](=O)[O-])cc([N+](=O)[O-])c3)cc2)n1 | > 100 |  | > 100 | > 100 | > 100 | > 100 | > 100 | 13.5 | > 100 |  | > 100 |  | > 100 | > 100 |  | > 100 | > 100 | 14.7 |  |
| C=CCn1c(-c2ccc(Cl)cc2)csc1=Nc1ccccc1OC | > 100 | > 100 | 86.3 | > 100 | > 100 | > 100 | > 87.9 | 14.9 | > 100 |  | > 100 | > 100 | > 100 | > 100 | > 79.8 | 8.11 | > 100 | > 100 |  |
| CC(=O)n1nc(-c2ccc3ccccc3c2)nc1C | > 100 | > 100 | > 100 | > 100 | > 100 | > 100 | > 100 | > 100 |  | > 100 | > 100 | > 100 | > 100 |  | > 100 | > 100 | > 100 | > 100 | > 100 |
| O=C1NC(=Nc2ccccc2)C(=Nc2ccccc2)N1c1ccccc1 | 25.2 | 30.7 | 52.8 | 32.5 | 31 | 32.8 |  | 72.8 | 32 | 11.5 | 33.1 | 32.7 | 29.4 | 76.8 | 29.4 | 29.7 | 34.4 | 51.1 | 31.5 |
| O=P1(Cc2ccccc2)c2ccccc2-c2ccccc21 | > 100 | 16.7 |  | > 52.6 | 19.3 | 10.3 | 20.2 | 30.5 | 31.2 | 14.1 | 87.9 | 54.7 | 36.7 | 4.61 | 40.5 | 4.18 | > 100 | 26.9 | > 73.1 |
| CCOC(=O)c1nc2cc(C(F)(F)F)ccc2nc1Oc1ccc(F)cc1 | > 100 | > 100 | > 100 |  | > 100 | > 100 | > 100 | > 100 | > 100 | > 100 | > 100 | > 100 | > 100 | > 100 | > 100 | > 100 |  | > 100 | > 100 |
| COc1ccc2oc(C(=O)N3CC(CCl)c4ccc(N)cc43)cc2c1 (stereo unspecified) | 1.62 | 1.19 | 15.6 | > 100 | 0.782 | 1.45 |  | 5.44 | 14.1 | 0.0828 |  | > 41 | 1.51 |  | > 100 |  | 8.78 | 4.76 | 4 |
| CCOC1CCN(C(=O)c2ccccc2)O1 (stereo unspecified) | > 10 | > 10 | > 10 | > 10 | > 10 |  | > 10 | > 10 | > 10 | > 10 | > 10 | > 10 | > 10 | > 10 | > 10 | > 10 | > 10 | > 10 | > 10 |
| N#Cc1c(-c2ccccc2)cc(Nc2ccc(Cl)cc2)n2c1nc1ccccc12 | > 100 | > 100 |  | > 58.2 | > 100 | > 65.5 | > 100 | 9.5 | > 100 | 11.6 | > 100 | > 50.9 | > 57 | > 63.3 | > 33.3 | 4.98 | > 30.4 | 20.3 | > 46.7 |
| C1=NCCOCCN=Cc2ccc(cc2)OCc2cccc(n2)COc2ccc1cc2 | > 100 |  | > 100 | > 100 | > 100 | > 100 | > 100 | > 100 | > 100 | > 100 | > 100 | > 100 | > 100 | > 100 | > 100 |  | > 100 | > 100 | > 100 |
| C=CCCC(=O)C(=[N+]=[N-])C(=O)CCC(=O)c1ccccc1 | > 10 |  |  | > 10 | > 10 |  | > 10 | > 10 | > 10 |  |  | > 10 | > 10 | > 10 | > 10 | > 10 | > 10 | > 10 | > 10 |
| O=[N+]([O-])C(C(Cl)=C(Cl)Cl)=C(n1cncn1)n1cncn1 | 31.6 | 98.1 |  | > 100 | 39.7 | > 100 | > 74.8 | > 100 | > 100 | 28.7 | 57 | 22.9 | 44.2 | 51.5 | > 100 | 31.8 | > 100 | > 100 | 59.9 |
| COc1cc(OC)c(C2(c3c(OC(C)C)c(=O)c3=O)SCCCS2)cc1OC | > 100 | > 100 | > 100 | > 100 | > 100 | > 100 | > 100 |  | > 100 | > 100 | > 100 | > 100 | > 100 | > 100 | > 100 | > 100 | > 100 | > 100 | > 100 |
| CNC(=S)/C(C#N)=C(\N)N1CCCC1 | > 100 | > 100 | > 100 | > 100 | > 100 | > 100 |  | > 100 | > 100 | > 100 |  | > 100 | > 100 | > 100 |  | > 100 | > 100 | > 100 | > 100 |
| NC(N)=N/N=C/c1c(-c2cc([N+](=O)[O-])c(Cl)cc2Cl)nc2n1CCS2 | 87.2 | 5.4 | 41 | > 100 | 36.4 | > 100 | > 100 | 58.6 | 92.5 | 51.5 | 33.9 | > 100 | > 100 | > 100 | 70.4 | > 100 |  | 3.43 | > 100 |
| CC(=O)NC1(C)C(C)C2CC1C(C)C2(C)C (stereo unspecified) | > 100 | > 100 | > 100 | > 100 | > 100 | > 100 | > 100 | > 100 | > 100 | > 100 | > 100 | > 100 | > 100 |  | > 100 | > 100 | > 100 | > 100 | > 100 |
| O=C1C(Cl)=C(NCCF)C(=O)c2ncccc21 | 2.99 | 2.71 | > 10 | 4.39 | 3.43 | 3.38 | 3.15 | 3.72 | 3.99 |  |  | 3.29 | 4.55 | > 10 | 3.21 | 2.56 | 3.74 | > 10 | 3.08 |
| COC(=O)[C@H](Cc1c[nH]c2ccccc12)NC(=O)c1ccccc1I | 53.9 | 82.6 | 54 | > 100 | > 100 | > 100 | 32.4 | 56.9 | 82.2 | 30.9 | > 100 | > 100 | > 100 |  | > 100 | 29.6 | > 100 | 58.7 | > 100 |
